Data as given in the supplement of paper PMC8671470.
± gives the standard deviation of the averaged measurements.

What was measured:
Conditions in all cases: 72 h
BV-173 [1] = tested on: BV-173
Summary of the method: (§1)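 Seeded in RPMI 1640 at densities within the linear growth range, fifteen myeloid leukaemia cell lines were dispensed into 384-well plates with acoustically pre-printed compounds spanning five tenfold doses from 1 to 10,000 nM, in duplicate. The plates were kept for 72 h at 37 °C in 5% CO2 before luminescent ATP viability was measured and normalised to vehicle and to a positive control at 10 µM. Curves were fitted with a four-parameter log-logistic model. The IC50 was taken from those curves.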

HEL [2] = tested on: HEL
Summary of the method: as §1

HL-60 [3] = tested on: HL-60
Summary of the method: as §1

K-562 [4] = tested on: K-562
Summary of the method: as §1

KCL-22 [5] = tested on: KCL-22
Summary of the method: as §1

KG-1 [6] = tested on: KG-1
Summary of the method: as §1

KU-812 = tested on: KU-812
Summary of the method: as §1

LAMA-84 [7] = tested on: LAMA-84
Summary of the method: as §1

ML-2 [8] = tested on: ML-2
Summary of the method: as §1

MOLM-13 [9] = tested on: MOLM-13
Summary of the method: as §1

MV4-11 [10] = tested on: MV4-11
Summary of the method: as §1

Mono-Mac-6 = tested on: Mono-Mac-6
Summary of the method: as §1

NOMO-1 = tested on: NOMO-1
Summary of the method: as §1

SHI-1 [11] = tested on: SHI-1
Summary of the method: as §1

THP-1 = tested on: THP-1
Summary of the method: as §1

HL-60 [12] = assay: cell viability (% survival relative to DMSO control); higher = less cytotoxic
Summary of the method: (§2)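 HL-60 cells grown in RPMI 1640 with 10% FBS were rescreened against the full library in 384-well plates, in duplicate, at five tenfold concentrations from 1 to 10,000 nM, alongside DMSO or 100 nM of one of three metabolic inhibitors for 72 h at 37 °C, 5% CO2. Reference wells contained DMSO or 10 μM proteasome inhibitor. Viability was read with CellTiter-Glo and normalised to these reference wells, and where reported, area under the curve was taken from four-parameter log-logistic fits in drc and PharmacoGx.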

BV-173 [13] = assay: cell viability (% survival relative to DMSO control, bortezomib = 0%); higher = less cytotoxic
Summary of the method: (§3)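 Fifteen myeloid leukaemia cell lines were exposed to compounds at 1, 10, 100, 1000 or 10000 nM in 384-well plates for 72 h at 37 °C and 5% CO2. Viability was read by CellTiter-Glo luminescence and normalised, with vehicle as 100% and a 10 µM positive control as 0%. Values are percent survival averaged over duplicates.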

HEL [14] = assay: as above
Summary of the method: as §3

HL-60 [15] = assay: as above
Summary of the method: as §3

K-562 [16] = assay: as above
Summary of the method: as §3

KCL-22 [17] = assay: as above
Summary of the method: as §3

KG-1 [18] = assay: as above
Summary of the method: as §3

LAMA-84 [19] = assay: as above
Summary of the method: as §3

ML-2 [20] = assay: as above
Summary of the method: as §3

MOLM-13 [21] = assay: as above
Summary of the method: as §3

MV4-11 [22] = assay: as above
Summary of the method: as §3

SHI-1 [23] = assay: as above
Summary of the method: as §3

HL-60 [24] = assay: area under dose-response curve (viability, 1 nM-10 uM) (fraction (0-1)); higher = more sensitive
Summary of the method: as §2

CCCCCCCCCCCCC/C=C/[C@@H](O)[C@H](CO)N(C)C [N,N-Dimethylsphingosine]
Conditions	IC50 (cell viability) [µM]
BV-173 [1]	1.67
HEL [2]	2.98
HL-60 [3]	> 10
K-562 [4]	> 10
KCL-22 [5]	2.78
KG-1 [6]	3.58
KU-812	> 10
LAMA-84 [7]	> 10
ML-2 [8]	3.46
MOLM-13 [9]	> 10
MV4-11 [10]	> 10
Mono-Mac-6	> 10
NOMO-1	> 10
SHI-1 [11]	> 10
THP-1	> 10

cell viability [%], HL-60 [12]
Conditions	0.001 µM	0.01 µM	0.1 µM	1 µM	10 µM
co-treatment: AZD3965 100 nM	95.3 ± 2.7	103 ± 7.5	100 ± 2.3	100.26 ± 0.045	-1.76 ± 1.1
co-treatment: DMSO vehicle	98.6 ± 0.98	98.5 ± 4	102 ± 6.8	97.42 ± 0.24	54.1 ± 66
co-treatment: GSK2194069 100 nM	90.2 ± 1.8	98.3 ± 5.2	103 ± 6	97.23 ± 0.41	86.6 ± 7.7
co-treatment: pictilisib 100 nM	87.6 ± 2.9	112 ± 13	106 ± 3.5	96.1 ± 2.2	62.7 ± 10

Conditions	area under dose-response curve, co-treatment: AZD3965 100 nM	area under dose-response curve, co-treatment: DMSO vehicle	area under dose-response curve, co-treatment: GSK2194069 100 nM	area under dose-response curve, co-treatment: pictilisib 100 nM	cell viability, 1 nM [%]	cell viability, 10 nM [%]	cell viability, 100 nM [%]	cell viability, 1000 nM [%]	cell viability, 10000 nM [%]
BV-173 [13]	–	–	–	–	93	89.7	98.7	74.2	22.5
HEL [14]	–	–	–	–	96.2	94.6	103	96.2	0.109
HL-60 [15]	–	–	–	–	90.6	84.7	100	105	88.9
HL-60 [24]	0.132	0.132	< 0.0301	0.0441	–	–	–	–	–
K-562 [16]	–	–	–	–	97.4	95.2	103	104	85.6
KCL-22 [17]	–	–	–	–	95.8	98	101	91.3	1.85
KG-1 [18]	–	–	–	–	92.2	96.8	101	82.7	37.4
LAMA-84 [19]	–	–	–	–	101	96.7	106	91.3	93.3
ML-2 [20]	–	–	–	–	95.1	96.8	97.7	107	-0.179
MOLM-13 [21]	–	–	–	–	97.3	96.5	86.2	104	71.1
MV4-11 [22]	–	–	–	–	94.2	102	95	117	95.8
SHI-1 [23]	–	–	–	–	101	97.8	104	97.8	83.8

CCCCCCCNC=O [N-Heptyl-Formamide]
Conditions	IC50 (cell viability) [µM]
BV-173 [1]	> 10
HEL [2]	> 10
HL-60 [3]	> 10
K-562 [4]	> 10
KCL-22 [5]	> 10
KG-1 [6]	> 10
KU-812	> 10
LAMA-84 [7]	> 10
ML-2 [8]	> 10
MOLM-13 [9]	> 10
MV4-11 [10]	> 10
Mono-Mac-6	> 10
NOMO-1	> 10
SHI-1 [11]	> 10
THP-1	> 10

cell viability [%], HL-60 [12]
Conditions	0.001 µM	0.01 µM	0.1 µM	1 µM	10 µM
co-treatment: AZD3965 100 nM	104.63 ± 0.079	106 ± 12	98 ± 6.2	95 ± 12	97.3 ± 4.2
co-treatment: DMSO vehicle	101.3 ± 0.22	78.3 ± 35	98.6 ± 5	97.7 ± 4.5	101 ± 2.9
co-treatment: GSK2194069 100 nM	99.7 ± 2.1	103 ± 2.5	99.6 ± 2.1	97.7 ± 8.2	94 ± 2.8
co-treatment: pictilisib 100 nM	99.8 ± 14	108 ± 15	78.6 ± 23	102 ± 4.4	100 ± 6.2

Conditions	area under dose-response curve, co-treatment: AZD3965 100 nM	area under dose-response curve, co-treatment: DMSO vehicle	area under dose-response curve, co-treatment: GSK2194069 100 nM	area under dose-response curve, co-treatment: pictilisib 100 nM	cell viability, 1 nM [%]	cell viability, 10 nM [%]	cell viability, 100 nM [%]	cell viability, 1000 nM [%]	cell viability, 10000 nM [%]
BV-173 [13]	–	–	–	–	112	98.3	90.4	123	95.5
HEL [14]	–	–	–	–	109	97.9	80.9	112	92.1
HL-60 [15]	–	–	–	–	108	115	95.3	143	91.7
HL-60 [24]	< 0.0301	< 0.0301	< 0.0301	< 0.0301	–	–	–	–	–
K-562 [16]	–	–	–	–	116	108	99	122	96.3
KCL-22 [17]	–	–	–	–	101	109	90.1	113	98.8
KG-1 [18]	–	–	–	–	99.6	110	86.4	108	95.5
LAMA-84 [19]	–	–	–	–	101	99.3	104	112	98.1
ML-2 [20]	–	–	–	–	121	106	88.8	117	90.9
MOLM-13 [21]	–	–	–	–	113	98.3	89.9	108	90.3
MV4-11 [22]	–	–	–	–	106	105	93.7	105	94.4
SHI-1 [23]	–	–	–	–	109	104	101	114	97.1
